Measured values published in the supplement of paper PMC4862054.
Several values for one entry are separate records, joined by “and”; a condition that tells them apart may be missing. Identical values can stand only once.

Key:
CAL-85-1 = experiment: normalised viability (% of control), CellTiter-Blue; higher = more viable cells (about 100 = DMSO control); conditions: incubation time: 72 h
Description: (§1)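 DSRT, CellTiter-Blue viability, 72 h incubation. Signal is normalised to DMSO and benzethonium chloride controls. Value is the normalised response at dose 9.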

CAL-148 = experiment: as above; conditions: incubation time: 72 h
Description: as §1

Structure (SMILES)	normalised viability (CAL-85-1)	normalised viability (CAL-148)
CC(C)C(=O)Nc1ccc([N+](=O)[O-])c(C(F)(F)F)c1 [Flutamide] (10000 nM)	84.8%	106%
COc1cc2c(Oc3ccc(NC(=O)C4(C(=O)Nc5ccc(F)cc5)CC4)cc3F)ccnc2cc1OCCCN1CCOCC1 [Foretinib] (1000 nM)	66.8%	25.8%
NC(=O)NO [Hydroxyurea] (100000 nM)	90%	119%
O=NN(CCCl)C(=O)NC1CCCCC1 [Lomustine] (10000 nM)	77.4%	99.1%
O=C(O)CC[C@H]1CC[C@@](c2cc(F)ccc2F)(S(=O)(=O)c2ccc(Cl)cc2)CC1 [MK-0752] (1000 nM)	104%	119%
NC(=O)c1cccc2cn(-c3ccc([C@@H]4CCCNC4)cc3)nc12 [MK-4827] (10000 nM)	73.2%	59.2%
CO[C@H](C(=O)[C@@H](O)[C@@H](C)O)[C@@H]1Cc2cc3cc(O[C@H]4C[C@@H](O[C@@H]5C[C@@H](O)[C@H](O)[C@@H](C)O5)[C@H](O)[C@@H](C)O4)c(C)c(O)c3c(O)c2C(=O)[C@H]1O[C@H]1C[C@@H](O[C@@H]2C[C@@H](O)[C@@H](O[C@@H]3C[C@](C)(O)[C@H](O)[C@@H](C)O3)[C@@H](C)O2)[C@H](O)[C@@H](C)O1 [Plicamycin] (10000 nM)	4.34% and 2.26%	7.52% and 8.68%
C[C@]12C=CC(=O)C=C1CC[C@@H]1[C@@H]2C(=O)C[C@@]2(C)[C@H]1CC[C@]2(O)C(=O)CO [Prednisone] (10000 nM)	103%	103%
CN1CCN(c2nc(C3=C(c4c[nH]c5ccccc45)C(=O)NC3=O)c3ccccc3n2)CC1 [Sotrastaurin] (10000 nM)	124%	127%
CC/C(=C(\c1ccccc1)c1ccc(OCCN(C)C)cc1)c1ccccc1 [Tamoxifen] (10000 nM)	102%	120%
Cn1nnc2c(C(N)=O)ncn2c1=O [Temozolomide] (10000 nM)	107%	116%
CC[C@@H]1C(=O)N(C)c2cnc(Nc3ccc(C(=O)N[C@H]4CC[C@H](N5CCN(CC6CC6)CC5)CC4)cc3OC)nc2N1C(C)C [Volasertib] (1000 nM)	61.5%	31.4%
